Patent US11524966B1 (Valo Early Discovery, Inc., priority 2017, dated 2022)

These compounds were tested against T1, USP25 (USP25-His6, Boston Biochem E-546) (Homo sapiens, UniProt Q9UHP3) (assay: Ubiquitin-Rhodamine 110 Assay for USP25 Activity, Example A-2). Conditions: Ubiquitin-Rhodamine 110 assay, Example A-2; read-out: USP25 A-2 IC50 range.
T1 construct: His6; purchased Boston Biochem E-546
T1 sequence (Q9UHP3 1-1055): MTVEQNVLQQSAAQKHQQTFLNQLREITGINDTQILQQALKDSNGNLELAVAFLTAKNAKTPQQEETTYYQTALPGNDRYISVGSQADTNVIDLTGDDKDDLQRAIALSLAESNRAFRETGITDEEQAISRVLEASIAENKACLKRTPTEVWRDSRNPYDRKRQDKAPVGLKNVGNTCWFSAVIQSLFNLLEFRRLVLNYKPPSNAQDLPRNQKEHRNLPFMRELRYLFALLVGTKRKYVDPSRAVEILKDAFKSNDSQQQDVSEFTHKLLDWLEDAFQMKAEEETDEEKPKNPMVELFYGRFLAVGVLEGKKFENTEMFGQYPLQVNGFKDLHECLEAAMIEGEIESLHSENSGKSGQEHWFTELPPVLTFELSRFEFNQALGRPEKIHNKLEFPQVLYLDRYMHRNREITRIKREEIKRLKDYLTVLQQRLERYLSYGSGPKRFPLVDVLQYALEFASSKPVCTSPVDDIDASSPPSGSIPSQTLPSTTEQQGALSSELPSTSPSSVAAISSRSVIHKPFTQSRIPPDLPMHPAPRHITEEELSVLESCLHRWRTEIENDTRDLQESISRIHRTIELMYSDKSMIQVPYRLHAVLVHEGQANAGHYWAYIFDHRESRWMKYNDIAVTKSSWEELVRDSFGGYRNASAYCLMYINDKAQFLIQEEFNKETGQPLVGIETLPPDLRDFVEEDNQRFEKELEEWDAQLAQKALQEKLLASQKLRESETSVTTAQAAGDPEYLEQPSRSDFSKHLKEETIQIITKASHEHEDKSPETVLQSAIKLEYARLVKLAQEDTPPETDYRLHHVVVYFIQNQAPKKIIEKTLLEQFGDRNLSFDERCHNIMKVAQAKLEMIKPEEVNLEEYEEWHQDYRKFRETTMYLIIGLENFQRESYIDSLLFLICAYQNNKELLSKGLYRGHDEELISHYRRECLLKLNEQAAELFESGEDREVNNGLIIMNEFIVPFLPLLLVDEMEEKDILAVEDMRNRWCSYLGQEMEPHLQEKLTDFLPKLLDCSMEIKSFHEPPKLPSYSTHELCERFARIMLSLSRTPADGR
Format: biochemical
Procedure, shortened: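 Cleavage of ubiquitin-rhodamine 110 (25 nM, well below Km) by His-tagged USP25 at 75 pM is measured fluorimetrically after 45 min at room temperature and acid quench. Inhibitors are preincubated with enzyme for 30 minutes. IC50 values come from four-parameter logistic curve fitting.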

| SMILES | IC50 [nM] |
| --- | --- |
| Cc1ccc2c(N)c(C(=O)N[C@H]3COc4cc(N5C[C@H]6CCN[C@H]6C5)ccc4C3)sc2n1 [Example 305, N-[(3R)-7-[(3aR,6aR)-octahydropyrrolo[3,4-b]pyrrol-5-yl]-3,4-dihydro-2H-1-benzopyran-3-yl]-3-amino-6-methylthieno[2,3-b]pyridine-2-carboxamide] | 50 to 200 |
| Cc1ccc2c(N)c(C(=O)N[C@H]3COc4cc(N5CCC6(CNC6)C5)ccc4C3)sc2n1 [Example 306, 3-amino-N-[(3R)-7-{2,6-diazaspiro[3.4]octan-6-yl}-3,4-dihydro-2H-1-benzopyran-3-yl]-6-methylthieno[2,3-b]pyridine-2-carboxamide] | 200 to 2000 |
| Cc1ccc2c(N)c(C(=O)N[C@H]3COc4cc(N5C[C@H](N)[C@]6(CCCO6)C5)ccc4C3)sc2n1 [Example 307, 3-amino-N-[(3R)-7-[(5S,9S)-9-amino-1-oxa-7-azaspiro[4.4]nonan-7-yl]-3,4-dihydro-2H-1-benzopyran-3-yl]-6-methylthieno[2,3-b]pyridine-2-carboxamide] | 200 to 2000 |
| Cc1ccc2c(N)c(C(=O)N[C@H]3COc4cc(N5C[C@@H](N)[C@@]6(CCCO6)C5)ccc4C3)sc2n1 [Example 308, 3-amino-N-[(3R)-7-[(5R,9R)-9-amino-1-oxa-7-azaspiro[4.4]nonan-7-yl]-3,4-dihydro-2H-1-benzopyran-3-yl]-6-methylthieno[2,3-b]pyridine-2-carboxamide] | 200 to 2000 |
| Cc1ccc2c(N)c(C(=O)N[C@H]3COc4cc(N5C[C@@H](N)[C@]6(CCCO6)C5)ccc4C3)sc2n1 [Example 309, 3-amino-N-[(3R)-7-[(5S,9R)-9-amino-1-oxa-7-azaspiro[4.4]nonan-7-yl]-3,4-dihydro-2H-1-benzopyran-3-yl]-6-methylthieno[2,3-b]pyridine-2-carboxamide] | 50 to 200 |
| Cc1ccc2c(N)c(C(=O)N[C@H]3COc4cc(N5C[C@H](N)[C@@]6(CCCO6)C5)ccc4C3)sc2n1 [Example 310, 3-amino-N-[(3R)-7-[(5R,9S)-9-amino-1-oxa-7-azaspiro[4.4]nonan-7-yl]-3,4-dihydro-2H-1-benzopyran-3-yl]-6-methylthieno[2,3-b]pyridine-2-carboxamide] | 200 to 2000 |
| CN[C@H]1CN(c2ccc3c(n2)CC[C@H](NC(=O)c2sc4nc(C)ccc4c2N)C3)C[C@@H]1OC [Example 311, 3-amino-N-[(6S)-2-[(3S,4S)-3-methoxy-4-(methylamino)pyrrolidin-1-yl]-5,6,7,8-tetrahydroquinolin-6-yl]-6-methylthieno[2,3-b]pyridine-2-carboxamide] | > 2000 |
| CN[C@H]1CN(c2ccc3c(n2)CC[C@H](NC(=O)c2sc4nc(C)cc(C)c4c2N)C3)C[C@@H]1OC [Example 312, 3-amino-N-[(6S)-2-[(3S,4S)-3-methoxy-4-(methylamino)pyrrolidin-1-yl]-5,6,7,8-tetrahydroquinolin-6-yl]-4,6-dimethylthieno[2,3-b]pyridine-2-carboxamide] | > 2000 |
| CCOC[C@@H]1CN(c2ccc3c(c2)OC[C@H](NC(=O)c2sc4nc(C)ccc4c2N)C3)C[C@@H]1N [Example 313, 3-amino-N-[(3R)-7-[(3R,4R)-3-amino-4-(ethoxymethyl)pyrrolidin-1-yl]-3,4-dihydro-2H-1-benzopyran-3-yl]-6-methylthieno[2,3-b]pyridine-2-carboxamide] | 200 to 2000 |
| CCOC[C@H]1CN(c2ccc3c(c2)OC[C@H](NC(=O)c2sc4nc(C)ccc4c2N)C3)C[C@H]1N [Example 314, 3-amino-N-[(3R)-7-[(3S,4S)-3-amino-4-(ethoxymethyl)pyrrolidin-1-yl]-3,4-dihydro-2H-1-benzopyran-3-yl]-6-methylthieno[2,3-b]pyridine-2-carboxamide] | 50 to 200 |
| CO[C@H]1CCN(c2ccc3c(c2)OC[C@H](NC(=O)c2sc4nc(C)cc(C)c4c2N)C3)C[C@@H]1N [Example 317, 3-amino-N-[(3R)-7-[(3S,4S)-3-amino-4-methoxypiperidin-1-yl]-3,4-dihydro-2H-1-benzopyran-3-yl]-4,6-dimethylthieno[2,3-b]pyridine-2-carboxamide] | 200 to 2000 |
| CO[C@@H]1CCN(c2ccc3c(c2)OC[C@H](NC(=O)c2sc4nc(C)cc(C)c4c2N)C3)C[C@H]1N [Example 318, 3-amino-N-[(3R)-7-[(3R,4R)-3-amino-4-methoxypiperidin-1-yl]-3,4-dihydro-2H-1-benzopyran-3-yl]-4,6-dimethylthieno[2,3-b]pyridine-2-carboxamide] | 200 to 2000 |
| Cc1cnc2c(N)c(C(=O)N[C@H]3CCc4cc(N5C[C@H](OC(C)C)[C@@H](N)C5)ccc4C3)sc2n1 [Example 319, 7-amino-N-[(2S)-6-[(3S,4S)-3-amino-4-(propan-2-yloxy)pyrrolidin-1-yl]-1,2,3,4-tetrahydronaphthalen-2-yl]-3-methylthieno[2,3-b]pyrazine-6-carboxamide] | > 2000 |
| Cc1ccc2c(N)c(C(=O)N[C@H]3CCc4nc(N5C[C@H](OC(C)C)[C@@H](N)C5)ccc4C3)sc2n1 [Example 320] | > 2000 |
| Cc1ccc2c(N)c(C(=O)N[C@H]3CCc4nc(N5C[C@H](N)[C@H](OC(C)C)C5)ccc4C3)sc2n1 [Example 321, 3-amino-N-[(6S)-2-[(3S,4R)-3-amino-4-(propan-2-yloxy)pyrrolidin-1-yl]-5,6,7,8-tetrahydroquinolin-6-yl]-6-methylthieno[2,3-b]pyridine-2-carboxamide] | > 2000 |
| Cc1ccc2c(N)c(C(=O)N[C@H]3CCc4nc(N5C[C@@H](N)[C@@H](OC(C)C)C5)ccc4C3)sc2n1 [Example 322, 3-amino-N-[(6S)-2-[(3R,4S)-3-amino-4-(propan-2-yloxy)pyrrolidin-1-yl]-5,6,7,8-tetrahydroquinolin-6-yl]-6-methylthieno[2,3-b]pyridine-2-carboxamide] | > 2000 |
| CCO[C@H]1CN(c2ccc3c(c2)OC[C@H](NC(=O)c2sc4nc(C)cc(C)c4c2N)C3)C[C@H]1N [Example 324, 3-amino-N-[(3R)-7-[(3R,4S)-3-amino-4-ethoxypyrrolidin-1-yl]-3,4-dihydro-2H-1-benzopyran-3-yl]-4,6-dimethylthieno[2,3-b]pyridine-2-carboxamide] | 200 to 2000 |
| CO[C@@]1(C)CN(c2ccc3c(n2)OC[C@H](NC(=O)c2sc4nc(C)ccc4c2N)C3)C[C@@H]1N [Example 325, 3-amino-N-[(3R)-7-[(3S,4S)-4-amino-3-methoxy-3-methylpyrrolidin-1-yl]-2H,3H,4H-pyrano[2,3-b]pyridin-3-yl]-6-methylthieno[2,3-b]pyridine-2-carboxamide] | > 2000 |
| CO[C@]1(C)CN(c2ccc3c(n2)OC[C@H](NC(=O)c2sc4nc(C)ccc4c2N)C3)C[C@H]1N [Example 326, 3-amino-N-[(3R)-7-[(3R,4R)-4-amino-3-methoxy-3-methylpyrrolidin-1-yl]-2H,3H,4H-pyrano[2,3-b]pyridin-3-yl]-6-methylthieno[2,3-b]pyridine-2-carboxamide] | > 2000 |
| COC[C@H]1CN(c2ccc3c(n2)CC[C@H](NC(=O)c2sc4nc(C)ccc4c2N)C3)C[C@@H]1N [Example 327, 3-amino-N-[(6S)-2-[(3R,4S)-3-amino-4-(methoxymethyl)pyrrolidin-1-yl]-5,6,7,8-tetrahydroquinolin-6-yl]-6-methylthieno[2,3-b]pyridine-2-carboxamide] | 200 to 2000 |
